Results: US20260297081A1, “COMPOUNDS AND METHODS OF TREATING CANCERS” (Cullgen Inc., priority 2023, published 2026)

How the values were obtained:
Assay type in all cases: cell-based
[1] = tested on: MCF7 cells; assay: Anti-proliferation (viability) of MCF7 cells (Table 7, FIG. 2B); conditions: Homo sapiens, MCF7, MCF7 cells, 3-6 days, 10-point serial dilution; read-out: GI IC50 in MCF-7
[2] = tested on: Calu-1 cells; assay: Anti-proliferation (viability) of NSCLC Calu-1 cells, 3 days (Table 7, FIG. 2B); conditions: Homo sapiens, 72 h; Calu-1 cells, 3 days, 10-point serial dilution; read-out: GI IC50 in Calu-1
Procedure: To evaluate anti-proliferation activities of heterobifunctional compounds, NSCLC Calu-1 or ER+ breast cancer T47D cells were treated with selected heterobifunctional compounds following a 10-point serial dilution for 3 or 6 days, respectively.
To verify that heterobifunctional compound-mediated degradation is dependent on the binding to CDK4-cyclin D complex, a negative control compound, CPD-143, which is derived from active heterobifunctional compound CPD-10 was designed. CPD-143 bears the same DDB1 ligand and linker as CPD-10 but with a modified warhead to impair the binding of the control compound to CDK4.

[3] = target: CDK4 (Homo sapiens, UniProt P11802+Q16531); assay: CDK4 percentage degradation in Calu-1 cells (Table 6); set-up: Cells that express cyclin D1-3 and CDK4/6 proteins were treated with heterobifunctional compounds; endogenous in cells; host or cells: Calu-1; conditions: 16 hours
Summary of the method: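 Percentage degradation of Cyclin D1 and CDK4 derived from densitometry of ECL Western blots on lysates of Calu-1 cells. Treatment was 16 h with compound at either 40 nM or 200 nM.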

CDK4, sequence (P11802 2-303 limits assumed): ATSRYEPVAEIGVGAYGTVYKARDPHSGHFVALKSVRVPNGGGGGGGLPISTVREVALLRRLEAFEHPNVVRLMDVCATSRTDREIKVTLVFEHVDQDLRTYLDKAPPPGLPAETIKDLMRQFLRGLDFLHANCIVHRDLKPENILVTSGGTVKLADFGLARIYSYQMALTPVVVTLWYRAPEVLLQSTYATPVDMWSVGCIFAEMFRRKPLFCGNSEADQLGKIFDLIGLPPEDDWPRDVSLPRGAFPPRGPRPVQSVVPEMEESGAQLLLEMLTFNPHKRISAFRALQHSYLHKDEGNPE
CDK4, sequence (P24385 whole entry partner): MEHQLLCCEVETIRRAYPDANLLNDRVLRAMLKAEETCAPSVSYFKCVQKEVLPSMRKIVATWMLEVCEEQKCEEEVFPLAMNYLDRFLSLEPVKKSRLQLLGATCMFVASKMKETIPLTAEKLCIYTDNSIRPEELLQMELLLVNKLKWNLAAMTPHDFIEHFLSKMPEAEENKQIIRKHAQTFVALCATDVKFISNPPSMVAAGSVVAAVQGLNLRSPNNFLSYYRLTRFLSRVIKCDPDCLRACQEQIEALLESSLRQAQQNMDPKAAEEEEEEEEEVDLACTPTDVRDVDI
CDK4, sequence (Q16531 2-1140 limits assumed): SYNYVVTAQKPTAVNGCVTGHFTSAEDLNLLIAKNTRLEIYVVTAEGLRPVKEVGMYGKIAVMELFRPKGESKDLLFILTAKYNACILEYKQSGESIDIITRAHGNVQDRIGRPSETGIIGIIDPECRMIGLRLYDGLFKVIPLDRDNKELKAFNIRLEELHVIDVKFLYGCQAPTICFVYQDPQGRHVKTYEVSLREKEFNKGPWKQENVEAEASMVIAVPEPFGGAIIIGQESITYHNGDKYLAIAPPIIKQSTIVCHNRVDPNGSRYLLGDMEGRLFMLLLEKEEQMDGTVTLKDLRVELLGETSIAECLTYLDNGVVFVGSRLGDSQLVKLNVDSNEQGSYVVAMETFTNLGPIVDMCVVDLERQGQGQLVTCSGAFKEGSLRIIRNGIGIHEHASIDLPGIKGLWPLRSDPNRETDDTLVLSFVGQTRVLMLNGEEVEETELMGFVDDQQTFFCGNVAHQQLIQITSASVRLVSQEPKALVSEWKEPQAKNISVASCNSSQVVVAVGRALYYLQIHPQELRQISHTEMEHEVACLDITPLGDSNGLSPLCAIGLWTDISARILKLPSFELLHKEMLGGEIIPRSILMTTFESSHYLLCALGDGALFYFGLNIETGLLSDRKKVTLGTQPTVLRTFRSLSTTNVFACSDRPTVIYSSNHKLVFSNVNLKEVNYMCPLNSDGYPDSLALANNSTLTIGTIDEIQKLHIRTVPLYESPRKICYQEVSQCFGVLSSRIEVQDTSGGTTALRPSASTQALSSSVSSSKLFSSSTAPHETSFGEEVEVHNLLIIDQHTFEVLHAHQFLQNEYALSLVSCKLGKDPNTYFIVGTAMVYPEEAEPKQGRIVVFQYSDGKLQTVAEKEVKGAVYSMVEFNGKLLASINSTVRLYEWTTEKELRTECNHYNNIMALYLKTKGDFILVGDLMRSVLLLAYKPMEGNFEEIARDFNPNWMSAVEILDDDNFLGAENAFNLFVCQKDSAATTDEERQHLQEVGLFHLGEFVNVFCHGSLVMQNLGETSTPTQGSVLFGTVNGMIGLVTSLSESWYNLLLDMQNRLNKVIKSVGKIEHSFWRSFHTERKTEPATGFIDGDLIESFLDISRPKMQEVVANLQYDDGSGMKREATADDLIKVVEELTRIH

Compound | IC50 [1] | IC50 [2] | inhibition at 0.04 µM ([3]; 40 nM) | inhibition at 0.2 µM ([3]; 200 nM)
CC(=O)c1c(C)c2cnc(Nc3ccc(N4CCN(C5CCN(C(=O)[C@H]6CC[C@H](Nc7nc(NC(C)C)ccc7-c7nc8cc(N(C)C)ccc8[nH]7)CC6)C5)CC4)cn3)nc2n(C2CCCC2)c1=O (relative stereo) [CPD-540, trans-6-acetyl-8-cyclopentyl-2-((5-(4-(1-(4-((3-(5-(dimethylamino)-1H-benzo[d]imidazol-2-yl)-6-(isopropylamino)pyridin-2-yl)amino)cyclohexane-1-carbonyl)pyrrolidin-3-yl)piperazin-1-yl)pyridin-2-yl)amino)-5-methylpyrido[2,3-d]pyrimidin-7(8H)-one] | > 100 nM | ≥ 50 nM |  | 
CC(=O)c1c(C)c2cnc(Nc3ccc(N4CCN(C5CCN(C(=O)[C@H]6CC[C@H](Nc7nc(NC(C)C)ccc7-c7nc8ccc(N(C)C)nc8[nH]7)CC6)C5)CC4)cn3)nc2n(C2CCCC2)c1=O (relative stereo) [CPD-546, trans-6-acetyl-8-cyclopentyl-2-((5-(4-(1-(4-((3-(5-(dimethylamino)-3H-imidazo[4,5-b]pyridin-2-yl)-6-(isopropylamino)pyridin-2-yl)amino)cyclohexane-1-carbonyl)pyrrolidin-3-yl)piperazin-1-yl)pyridin-2-yl)amino)-5-methylpyrido[2,3-d]pyrimidin-7(8H)-one] | < 50 nM | ≤ 10 nM |  | 
CNc1ccc(C(=O)Nc2ccn(C)n2)c(NC2CC3(C2)CN(C(=O)CCN2CCN(c4ccc(Nc5ncc6c(C)c(C(C)=O)c(=O)n(C7CCCC7)c6n5)nc4)CC2)C3)n1 [CPD-144, 2-((2-(3-(4-(6-((6-acetyl-8-cyclopentyl-5-methyl-7-oxo-7,8-dihydropyrido[2,3-d]pyrimidin-2-yl)amino)pyridin-3-yl)piperazin-1-y)propanoyl)-2-azaspiro[3.3]heptan-6-yl)amino)-N-(1-methyl-1H-pyrazol-3-yl)-6-(methylamino)nicotinamide] |  | 10 to 50 nM | 50 to 80% | > 80%
[2H]C([2H])([2H])Nc1ccc(C(=O)Nc2cccc(C)n2)c(NC2CCN(C(=O)CN3CCN(c4ccc(Nc5ncc6c(C)c(C(C)=O)c(=O)n(C7CCCC7)c6n5)nc4)CC3)CC2)n1 [CPD-270, 2-((1-(2-(4-(6-((6-acetyl-8-cyclopentyl-5-methyl-7-oxo-7,8-dihydropyrido[2,3-d]pyrimidin-2-yl)amino)pyridin-3-yl)piperazin-1-yl)acetyl)piperidin-4-yl)amino)-6-((methyl-d3)amino)-N-(6-methylpyridin-2-yl)nicotinamide] | > 100 nM | ≥ 50 nM |  | 
CNc1ccc(C(=O)Nc2ccc(N(C)C)nn2)c(NC2CCC(CNC(=O)CN3CCN(c4ccc(Nc5ncc6c(C)c(C(C)=O)c(=O)n(C7CCCC7)c6n5)nc4)CC3)C2)n1 (stereo not drawn) [CPD-271, 2-((3-((2-(4-(6-((6-acetyl-8-cyclopentyl-5-methyl-7-oxo-7,8-dihydropyrido[2,3-d]pyrimidin-2-yl)amino)pyridin-3-yl)piperazin-1-yl)acetamido)methyl)cyclopentyl)amino)-N-(6-(dimethylamino)pyridazin-3-yl)-6-(methylamino)nicotinamide] | > 100 nM | ≥ 50 nM |  | 
CC(=O)c1c(C)c2cnc(Nc3ccc(N4CCN(CC(=O)NC5CC6(C5)CC(Nc5nc(NC(C)C)ccc5C(=O)Nc5ccc(N(C)C)nn5)C6)CC4)cn3)nc2n(C2CCCC2)c1=O (stereo not drawn) [CPD-272, 2-((6-(2-(4-(6-((6-acetyl-8-cyclopentyl-5-methyl-7-oxo-7,8-dihydropyrido[2,3-d]pyrimidin-2-yl)amino)pyridin-3-yl)piperazin-1-yl)acetamido)spiro[3.3]heptan-2-yl)amino)-N-(6-(dimethylamino)pyridazin-3-yl)-6-(isopropylamino)nicotinamide] | < 50 nM | ≤ 10 nM |  | 
[2H]C([2H])([2H])Nc1ccc(C(=O)Nc2cn(C)c(C3CC3)n2)c(NC2CCN(C(=O)CCN3CCN(c4ccc(Nc5ncc6c(C)c(C(C)=O)c(=O)n(C7CCCC7)c6n5)nc4)CC3)C2)n1 (stereo not drawn) [CPD-273, 2-((1-(3-(4-(6-((6-acetyl-8-cyclopentyl-5-methyl-7-oxo-7,8-dihydropyrido[2,3-d]pyrimidin-2-yl)amino)pyridin-3-yl)piperazin-1-yl)propanoyl)pyrrolidin-3-yl)amino)-N-(2-cyclopropyl-1-methyl-1H-imidazol-4-yl)-6-((methyl-d3)amino)nicotinamide] | > 100 nM | ≥ 50 nM |  | 
CC(=O)c1c(C)c2cnc(Nc3ccc(N4CCN(CCC(=O)N5CCC(Nc6nc(NC(C)C)ccc6C(=O)Nc6cn(C)c(C7CC7)n6)C5)CC4)cn3)nc2n(C2CCCC2)c1=O (stereo not drawn) [CPD-274, 2-((1-(3-(4-(6-((6-acetyl-8-cyclopentyl-5-methyl-7-oxo-7,8-dihydropyrido[2,3-d]pyrimidin-2-yl)amino)pyridin-3-yl)piperazin-1-yl)propanoyl)pyrrolidin-3-yl)amino)-N-(2-cyclopropyl-1-methyl-1H-imidazol-4-yl)-6-(isopropylamino)nicotinamide] | > 100 nM | 10 to 50 nM |  | 
CC(=O)c1c(C)c2cnc(Nc3ccc(N4CCN(C5CCN(C(=O)CN6CC7(CC(Nc8nc(NC(C)C)ccc8C(=O)Nc8ccc(N(C)C)nn8)C7)C6)C5)CC4)cn3)nc2n(C2CCCC2)c1=O (stereo not drawn) [CPD-518, 2-((2-(2-(3-(4-(6-((6-acetyl-8-cyclopentyl-5-methyl-7-oxo-7,8-dihydropyrido[2,3-d]pyrimidin-2-yl)amino)pyridin-3-yl)piperazin-1-yl)pyrrolidin-1-yl)-2-oxoethyl)-2-azaspiro[3.3]heptan-6-yl)amino)-N-(6-(dimethylamino)pyridazin-3-yl)-6-(isopropylamino)nicotinamide] |  | ≤ 10 nM |  | 
[2H]C([2H])([2H])Nc1ccc(C(=O)Nc2ccc(N(C)C)nn2)c(NC2CC3(C2)CN(C(=O)CN2CCC4(CCN(Cc5ccc(Nc6ncc7c(C)c(C(C)=O)c(=O)n(C8CCCC8)c7n6)nc5)C4)C2)C3)n1 (stereo not drawn) [CPD-519, 2-((2-(2-(7-((6-((6-acetyl-8-cyclopentyl-5-methyl-7-oxo-7,8-dihydropyrido[2,3-d]pyrimidin-2-yl)amino)pyridin-3-yl)methyl)-2,7-diazaspiro[4.4]nonan-2-yl)acetyl)-2-azaspiro[3.3]heptan-6-yl)amino)-N-(6-(dimethylamino)pyridazin-3-yl)-6-((methyl-d3)amino)nicotinamide] |  | ≤ 10 nM |  | 
[2H]C([2H])([2H])Nc1ccc(C(=O)Nc2cc3n(n2)CCC3)c(N[C@H]2CC[C@H](C(=O)N3CCC(N4CCN(c5ccc(Nc6ncc7c(C)c(C(C)=O)c(=O)n(C8CCCC8)c7n6)nc5)CC4)C3)CC2)n1 (stereo partly drawn) [CPD-521, 2-((trans-4-(3-(4-(6-((6-acetyl-8-cyclopentyl-5-methyl-7-oxo-7,8-dihydropyrido[2,3-d]pyrimidin-2-yl)amino)pyridin-3-yl)piperazin-1-yl)pyrrolidine-1-carbonyl)cyclohexyl)amino)-N-(5,6-dihydro-4H-pyrrolo[1,2-b]pyrazol-2-yl)-6-((methyl-d3)amino)nicotinamide] |  | 10 to 50 nM |  | 
COc1cccc(NC(=O)c2ccc(NC(C)C)nc2N[C@H]2CC[C@H](C(=O)N3CCC(N4CCN(c5ccc(Nc6ncc7c(C)c(C(C)=O)c(=O)n(C8CCCC8)c7n6)nc5)CC4)C3)CC2)n1 (stereo partly drawn) [CPD-522, 2-((trans-4-(3-(4-(6-((6-acetyl-8-cyclopentyl-5-methyl-7-oxo-7,8-dihydropyrido[2,3-d]pyrimidin-2-yl)amino)pyridin-3-yl)piperazin-1-yl)pyrrolidine-1-carbonyl)cyclohexyl)amino)-6-(isopropylamino)-N-(6-methoxypyridin-2-yl)nicotinamide] |  | ≤ 10 nM |  | 
[2H]C([2H])([2H])Nc1ccc(C(=O)Nc2cccc(OC)n2)c(N[C@H]2CC[C@H](C(=O)N3CCC(N4CCN(c5ccc(Nc6ncc7c(C)c(C(C)=O)c(=O)n(C8CCCC8)c7n6)nc5)CC4)C3)CC2)n1 (stereo partly drawn) [CPD-523, 2-((trans-4-(3-(4-(6-((6-acetyl-8-cyclopentyl-5-methyl-7-oxo-7,8-dihydropyrido[2,3-d]pyrimidin-2-yl)amino)pyridin-3-yl)piperazin-1-yl)pyrrolidine-1-carbonyl)cyclohexyl)amino)-N-(6-methoxypyridin-2-yl)-6-((methyl-d3)amino)nicotinamide] |  | ≥ 50 nM |  | 
[2H]C([2H])([2H])Nc1ccc(C(=O)Nc2cc3n(n2)CCC3)c(NC2CC3(C2)CN(C(=O)CC(N2CCN(c4ccc(Nc5ncc6c(C)c(C(C)=O)c(=O)n(C7CCCC7)c6n5)nc4)CC2)C(F)(F)F)C3)n1 (stereo not drawn) [CPD-524, 2-((2-(3-(4-(6-((6-acetyl-8-cyclopentyl-5-methyl-7-oxo-7,8-dihydropyrido[2,3-d]pyrimidin-2-yl)amino)pyridin-3-yl)piperazin-1-yl)-4,4,4-trifluorobutanoyl)-2-azaspiro[3.3]heptan-6-yl)amino)-N-(5,6-dihydro-4H-pyrrolo[1,2-b]pyrazol-2-yl)-6-((methyl-d3)amino)nicotinamide] |  | ≤ 10 nM |  | 
CC(=O)c1c(C)c2cnc(Nc3ccc(N4CCN(C5CCN(C(=O)[C@H]6CC[C@H](Nc7cc(NC(C)C)ccc7C(=O)Nc7ccc(N(C)C)nn7)CC6)C5)CC4)cn3)nc2n(C2CCCC2)c1=O (stereo partly drawn) [CPD-527, 2-((trans-4-(3-(4-(6-((6-acetyl-8-cyclopentyl-5-methyl-7-oxo-7,8-dihydropyrido[2,3-d]pyrimidin-2-yl)amino)pyridin-3-yl)piperazin-1-yl)pyrrolidine-1-carbonyl)cyclohexyl)amino)-N-(6-(dimethylamino)pyridazin-3-yl)-4-(isopropylamino)benzamide] |  | ≤ 10 nM |  | 
